Assays:
[1] = system: Muscle tissue; experiment: Biodistribution in Sprague-Dawley rat muscle assessed as compound level per organ at 11 uCi, iv measured 30 mins post compound dose; type: ADME, organism-based; conditions: in vivo, 0.5 h
[2] = system: Zone of skin; experiment: Biodistribution in Sprague-Dawley rat skin assessed as compound level per organ at 11 uCi, iv measured 2 mins post compound dose; type: ADME, organism-based; conditions: in vivo
[3] = system: Pancreas; experiment: Biodistribution in Sprague-Dawley rat pancreas assessed as compound level per organ at 11 uCi, iv measured 2 mins post compound dose; type: ADME, organism-based; conditions: in vivo
[4] = system: Nucleic Acid; experiment: Ratio of drug level in hypothalamus to cerebellum in Sprague-Dawley rat at 11 uCi, iv measured 60 mins post compound dose; type: ADME, organism-based; conditions: in vivo, 1 h
[5] = system: Nucleic Acid; experiment: Ratio of drug level in rest of brain region to cerebellum in Sprague-Dawley rat at 11 uCi, iv measured 60 mins post compound dose; type: ADME, organism-based; conditions: in vivo, 1 h
[6] = system: Nucleic Acid; experiment: Ratio of drug level in cortex to cerebellum in Sprague-Dawley rat at 11 uCi, iv measured 60 mins post compound dose; type: ADME, organism-based; conditions: in vivo, 1 h
[7] = system: Nucleic Acid; experiment: Ratio of drug level in striatum to cerebellum in Sprague-Dawley rat at 11 uCi, iv measured 30 mins post compound dose; type: ADME, organism-based; conditions: in vivo, 0.5 h
[8] = system: Brain; experiment: Biodistribution in Sprague-Dawley rat rest of brain at 11 uCi, iv measured 60 mins post compound dose; type: ADME, organism-based; conditions: in vivo, 1 h
[9] = system: Hippocampus; experiment: Biodistribution in Sprague-Dawley rat hippocampus at 11 uCi, iv measured 2 mins post compound dose; type: ADME, organism-based; conditions: in vivo
[10] = system: Brain; experiment: Biodistribution in Sprague-Dawley rat brain at 11 uCi, iv measured 120 mins post compound dose; type: ADME, organism-based; conditions: in vivo, 2 h
[11] = system: Lung; experiment: Biodistribution in Sprague-Dawley rat lung at 11 uCi, iv measured 120 mins post compound dose; type: ADME, organism-based; conditions: in vivo, 2 h
[12] = system: Bone; experiment: Biodistribution in Sprague-Dawley rat bone at 11 uCi, iv measured 60 mins post compound dose; type: ADME, organism-based, Bone element; conditions: in vivo, 1 h
[13] = system: Liver; experiment: Biodistribution in Sprague-Dawley rat liver at 11 uCi, iv measured 60 mins post compound dose; type: ADME, organism-based; conditions: in vivo, 1 h
[14] = system: Spleen; experiment: Biodistribution in Sprague-Dawley rat spleen at 11 uCi, iv measured 60 mins post compound dose; type: ADME, organism-based; conditions: in vivo, 1 h
[15] = system: Lung; experiment: Biodistribution in Sprague-Dawley rat lung at 11 uCi, iv measured 60 mins post compound dose; type: ADME, organism-based; conditions: in vivo, 1 h
[16] = system: Blood; experiment: Biodistribution in Sprague-Dawley rat blood at 11 uCi, iv measured 60 mins post compound dose; type: ADME, organism-based; conditions: in vivo, 1 h
[17] = system: Bone; experiment: Biodistribution in Sprague-Dawley rat bone at 11 uCi, iv measured 30 mins post compound dose; type: ADME, organism-based, Bone element; conditions: in vivo, 0.5 h
[18] = system: Pancreas; experiment: Biodistribution in Sprague-Dawley rat pancreas at 11 uCi, iv measured 30 mins post compound dose; type: ADME, organism-based; conditions: in vivo, 0.5 h
[19] = system: Kidney; experiment: Biodistribution in Sprague-Dawley rat kidney at 11 uCi, iv measured 30 mins post compound dose; type: ADME, organism-based; conditions: in vivo, 0.5 h
[20] = system: Blood; experiment: Biodistribution in Sprague-Dawley rat blood at 11 uCi, iv measured 30 mins post compound dose; type: ADME, organism-based; conditions: in vivo, 0.5 h
[21] = system: Brain; experiment: Biodistribution in Sprague-Dawley rat brain at 11 uCi, iv measured 2 mins post compound dose; type: ADME, organism-based; conditions: in vivo
[22] = system: Liver; experiment: Biodistribution in Sprague-Dawley rat liver at 11 uCi, iv measured 2 mins post compound dose; type: ADME, organism-based; conditions: in vivo
[23] = system: Blood; experiment: Biodistribution in Sprague-Dawley rat blood at 11 uCi, iv measured 2 mins post compound dose; type: ADME, organism-based; conditions: in vivo
[24] = system: Zone of skin; experiment: Biodistribution in Sprague-Dawley rat skin assessed as compound level per organ at 11 uCi, iv measured 120 mins post compound dose; type: ADME, organism-based; conditions: in vivo, 2 h
[25] = system: Pancreas; experiment: Biodistribution in Sprague-Dawley rat pancreas assessed as compound level per organ at 11 uCi, iv measured 120 mins post compound dose; type: ADME, organism-based; conditions: in vivo, 2 h
[26] = system: Zone of skin; experiment: Biodistribution in Sprague-Dawley rat skin assessed as compound level per organ at 11 uCi, iv measured 60 mins post compound dose; type: ADME, organism-based; conditions: in vivo, 1 h
[27] = system: Spleen; experiment: Biodistribution in Sprague-Dawley rat spleen assessed as compound level per organ at 11 uCi, iv measured 60 mins post compound dose; type: ADME, organism-based; conditions: in vivo, 1 h
[28] = system: Liver; experiment: Biodistribution in Sprague-Dawley rat liver assessed as compound level per organ at 11 uCi, iv measured 60 mins post compound dose; type: ADME, organism-based; conditions: in vivo, 1 h
[29] = system: Lung; experiment: Biodistribution in Sprague-Dawley rat lung assessed as compound level per organ at 11 uCi, iv measured 60 mins post compound dose; type: ADME, organism-based; conditions: in vivo, 1 h
[30] = system: Zone of skin; experiment: Biodistribution in Sprague-Dawley rat skin assessed as compound level per organ at 11 uCi, iv measured 30 mins post compound dose; type: ADME, organism-based; conditions: in vivo, 0.5 h

CN(C)Cc1cc([125I])ccc1Sc1ccccc1CO
Drug uptake [1]: 17.1 %ID
Drug uptake [2]: 8.86 %ID
Drug uptake [3]: 0.6 %ID
Ratio [4]: 2.77
Ratio [5]: 1.1
Ratio [6]: 1.69
Ratio [7]: 3.13
Drug uptake [8]: 0.13 % ID/g
Drug uptake [9]: 1.28 % ID/g
Drug uptake [10]: 0.06 % ID/g
Drug uptake [11]: 0.27 % ID/g
Drug uptake [12]: 0.23 % ID/g
Drug uptake [13]: 0.48 % ID/g
Drug uptake [14]: 0.22 % ID/g
Drug uptake [15]: 0.42 % ID/g
Drug uptake [16]: 0.22 % ID/g
Drug uptake [17]: 0.4 % ID/g
Drug uptake [18]: 0.56 % ID/g
Drug uptake [19]: 1.45 % ID/g
Drug uptake [20]: 0.36 % ID/g
Drug uptake [21]: 1.21 % ID/g
Drug uptake [22]: 1.23 % ID/g
Drug uptake [23]: 0.44 % ID/g
Drug uptake [24]: 4.07 %ID
Drug uptake [25]: 0.06 %ID
Drug uptake [26]: 6.4 %ID
Drug uptake [27]: 0.14 %ID
Drug uptake [28]: 3.8 %ID
Drug uptake [29]: 0.73 %ID
Drug uptake [30]: 9.38 %ID

Reference: ChEMBL document CHEMBL2311510, “A new single-photon emission computed tomography (SPECT) imaging agent for serotonin transporters: [(125)I]Flip-IDAM, (2-((2-((dimethylamino)methyl)-4-iodophenyl)thio)phenyl)methanol” (Bioorg Med Chem Lett, 2013)
